Data reported in ChEMBL document CHEMBL5291721, “A preclinical secondary pharmacology resource illuminates target-adverse drug reaction associations of marketed drugs” (Nat Commun, 2023).

Assays:
[1] = molecular target: T1, Alpha-1A adrenergic receptor (Homo sapiens, UniProt P35348)
T1 sequence (P35348 whole entry): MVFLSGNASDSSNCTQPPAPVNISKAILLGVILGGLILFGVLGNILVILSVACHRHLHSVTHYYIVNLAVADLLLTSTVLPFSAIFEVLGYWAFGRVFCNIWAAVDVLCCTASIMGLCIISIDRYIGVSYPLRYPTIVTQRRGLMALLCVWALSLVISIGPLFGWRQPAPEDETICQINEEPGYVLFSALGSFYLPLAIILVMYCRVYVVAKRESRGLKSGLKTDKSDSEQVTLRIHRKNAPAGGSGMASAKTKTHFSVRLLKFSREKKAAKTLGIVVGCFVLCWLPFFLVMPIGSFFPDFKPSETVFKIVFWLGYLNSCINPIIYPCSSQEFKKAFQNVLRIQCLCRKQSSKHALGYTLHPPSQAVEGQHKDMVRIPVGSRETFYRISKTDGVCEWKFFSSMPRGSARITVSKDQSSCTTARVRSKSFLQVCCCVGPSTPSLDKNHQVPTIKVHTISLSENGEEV

[2] = molecular target: T2, Alpha-2B adrenergic receptor (Homo sapiens, UniProt P18089)
T2 sequence (P18089 whole entry): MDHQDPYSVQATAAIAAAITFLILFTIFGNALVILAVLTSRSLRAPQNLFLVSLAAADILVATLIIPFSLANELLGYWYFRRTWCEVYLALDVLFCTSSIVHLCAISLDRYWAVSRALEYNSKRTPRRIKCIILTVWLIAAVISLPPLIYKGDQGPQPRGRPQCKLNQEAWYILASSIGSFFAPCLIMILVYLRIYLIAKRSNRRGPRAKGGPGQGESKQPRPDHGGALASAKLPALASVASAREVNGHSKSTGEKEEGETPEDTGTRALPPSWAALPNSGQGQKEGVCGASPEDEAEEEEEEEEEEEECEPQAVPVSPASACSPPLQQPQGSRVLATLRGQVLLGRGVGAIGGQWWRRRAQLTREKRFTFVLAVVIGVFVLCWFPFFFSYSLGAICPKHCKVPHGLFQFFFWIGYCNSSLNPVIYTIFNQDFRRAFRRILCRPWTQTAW

[3] = molecular target: T3, Muscarinic acetylcholine receptor M1 (Homo sapiens, UniProt P11229); assay type: functional
T3 sequence (P11229 whole entry): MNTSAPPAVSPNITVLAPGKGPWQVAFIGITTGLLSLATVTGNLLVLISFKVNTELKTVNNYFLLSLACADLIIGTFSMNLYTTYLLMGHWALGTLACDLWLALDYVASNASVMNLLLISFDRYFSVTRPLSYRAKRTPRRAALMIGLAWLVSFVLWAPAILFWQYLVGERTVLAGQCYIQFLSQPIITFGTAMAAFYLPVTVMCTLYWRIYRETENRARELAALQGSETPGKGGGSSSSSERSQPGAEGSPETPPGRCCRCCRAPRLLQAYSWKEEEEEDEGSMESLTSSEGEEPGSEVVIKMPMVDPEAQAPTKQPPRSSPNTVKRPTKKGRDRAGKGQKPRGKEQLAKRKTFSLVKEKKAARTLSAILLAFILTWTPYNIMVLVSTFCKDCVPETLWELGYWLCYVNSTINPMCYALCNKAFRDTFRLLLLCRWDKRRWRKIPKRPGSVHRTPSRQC

Cannabinoid receptor 1 [4] = molecular target: T4, Cannabinoid receptor 1 (Homo sapiens, UniProt P21554); assay type: functional, cell-based
Cannabinoid receptor 1 [5] = molecular target: T4, Cannabinoid receptor 1; assay type: functional, cell-based; remark: listed apart in the source
Cannabinoid receptor 1 [6] = molecular target: T4, Cannabinoid receptor 1
Estrogen receptor = molecular target: T5, Estrogen receptor (Homo sapiens, UniProt P03372)
T5 sequence (P03372 whole entry): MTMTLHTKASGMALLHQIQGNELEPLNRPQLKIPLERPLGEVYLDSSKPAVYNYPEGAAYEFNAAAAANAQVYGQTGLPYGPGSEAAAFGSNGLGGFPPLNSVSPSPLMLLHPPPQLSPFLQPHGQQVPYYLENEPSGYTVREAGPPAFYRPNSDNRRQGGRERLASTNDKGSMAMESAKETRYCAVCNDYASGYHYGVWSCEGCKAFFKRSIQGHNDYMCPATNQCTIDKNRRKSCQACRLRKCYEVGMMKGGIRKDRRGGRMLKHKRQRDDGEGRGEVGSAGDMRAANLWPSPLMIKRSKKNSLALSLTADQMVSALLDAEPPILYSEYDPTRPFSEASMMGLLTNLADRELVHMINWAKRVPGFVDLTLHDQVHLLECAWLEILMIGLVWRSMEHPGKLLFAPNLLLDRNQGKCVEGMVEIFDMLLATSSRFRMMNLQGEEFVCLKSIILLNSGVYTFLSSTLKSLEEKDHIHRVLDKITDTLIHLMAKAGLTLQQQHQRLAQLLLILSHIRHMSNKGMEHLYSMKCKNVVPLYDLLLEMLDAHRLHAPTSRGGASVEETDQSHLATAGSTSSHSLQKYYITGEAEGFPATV

Histamine H1 receptor = Histamine H1 receptor (Homo sapiens, UniProt P35367)
Melanocortin receptor 4 = Melanocortin receptor 4 (Homo sapiens, UniProt P32245)
[7] = molecular target: T1, Alpha-1A adrenergic receptor; assay type: functional, cell-based
[8] = molecular target: T6, 5-hydroxytryptamine receptor 1A (Homo sapiens, UniProt P08908); assay type: functional, cell-based
T6 sequence (P08908 whole entry): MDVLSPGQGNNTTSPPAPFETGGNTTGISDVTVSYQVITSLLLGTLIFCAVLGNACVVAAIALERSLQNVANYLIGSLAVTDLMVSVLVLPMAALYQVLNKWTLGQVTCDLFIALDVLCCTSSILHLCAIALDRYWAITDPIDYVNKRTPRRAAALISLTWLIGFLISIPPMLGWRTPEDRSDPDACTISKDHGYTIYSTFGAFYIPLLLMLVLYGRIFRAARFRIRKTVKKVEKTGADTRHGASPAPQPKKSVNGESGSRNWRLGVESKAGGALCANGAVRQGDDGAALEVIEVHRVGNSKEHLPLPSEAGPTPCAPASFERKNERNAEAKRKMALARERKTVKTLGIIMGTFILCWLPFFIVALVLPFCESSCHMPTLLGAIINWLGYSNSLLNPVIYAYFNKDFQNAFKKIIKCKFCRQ

Mu-type opioid receptor = Mu-type opioid receptor (Homo sapiens, UniProt P35372); assay: biochemical; assay type: functional
[9] = molecular target: Beta-2 adrenergic receptor (Homo sapiens, UniProt P07550); assay type: functional, cell-based
Further: assay procedure not described here.

T4 sequence (P21554 whole entry): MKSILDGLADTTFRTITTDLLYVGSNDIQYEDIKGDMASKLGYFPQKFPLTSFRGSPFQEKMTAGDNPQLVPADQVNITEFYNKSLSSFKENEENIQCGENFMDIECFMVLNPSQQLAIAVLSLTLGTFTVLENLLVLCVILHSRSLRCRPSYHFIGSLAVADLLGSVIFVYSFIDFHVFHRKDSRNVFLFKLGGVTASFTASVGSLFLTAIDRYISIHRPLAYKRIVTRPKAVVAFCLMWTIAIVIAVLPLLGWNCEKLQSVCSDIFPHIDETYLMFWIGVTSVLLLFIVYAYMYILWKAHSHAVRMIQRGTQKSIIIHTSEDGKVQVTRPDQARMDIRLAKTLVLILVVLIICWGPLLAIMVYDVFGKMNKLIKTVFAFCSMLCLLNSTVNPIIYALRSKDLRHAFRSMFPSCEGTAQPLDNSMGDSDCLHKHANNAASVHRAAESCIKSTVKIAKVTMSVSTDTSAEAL
Chain of Mu-type opioid receptor (P35372 whole entry): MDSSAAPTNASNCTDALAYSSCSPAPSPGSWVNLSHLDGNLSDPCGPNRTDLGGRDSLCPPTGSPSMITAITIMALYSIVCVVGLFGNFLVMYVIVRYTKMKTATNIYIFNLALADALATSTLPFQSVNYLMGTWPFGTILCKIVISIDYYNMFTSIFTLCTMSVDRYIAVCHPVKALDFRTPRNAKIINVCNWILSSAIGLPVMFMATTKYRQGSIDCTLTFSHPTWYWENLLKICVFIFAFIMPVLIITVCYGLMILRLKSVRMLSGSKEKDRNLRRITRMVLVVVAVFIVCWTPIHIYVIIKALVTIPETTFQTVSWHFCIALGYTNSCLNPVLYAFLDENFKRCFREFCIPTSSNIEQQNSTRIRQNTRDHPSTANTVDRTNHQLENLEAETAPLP
Chain of Histamine H1 receptor (P35367 whole entry): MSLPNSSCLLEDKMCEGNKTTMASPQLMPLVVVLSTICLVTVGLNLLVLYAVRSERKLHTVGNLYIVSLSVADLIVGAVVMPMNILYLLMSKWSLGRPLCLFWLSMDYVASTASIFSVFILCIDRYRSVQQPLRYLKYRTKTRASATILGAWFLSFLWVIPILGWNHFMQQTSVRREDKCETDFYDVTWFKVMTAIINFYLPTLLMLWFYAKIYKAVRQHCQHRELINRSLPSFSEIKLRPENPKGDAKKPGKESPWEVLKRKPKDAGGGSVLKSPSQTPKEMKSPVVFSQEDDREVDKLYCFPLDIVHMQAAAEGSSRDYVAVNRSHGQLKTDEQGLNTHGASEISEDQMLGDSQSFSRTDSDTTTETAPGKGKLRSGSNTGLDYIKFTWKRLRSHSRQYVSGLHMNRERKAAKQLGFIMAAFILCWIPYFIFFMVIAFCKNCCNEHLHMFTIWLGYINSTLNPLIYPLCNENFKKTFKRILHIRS
Chain of Melanocortin receptor 4 (P32245 whole entry): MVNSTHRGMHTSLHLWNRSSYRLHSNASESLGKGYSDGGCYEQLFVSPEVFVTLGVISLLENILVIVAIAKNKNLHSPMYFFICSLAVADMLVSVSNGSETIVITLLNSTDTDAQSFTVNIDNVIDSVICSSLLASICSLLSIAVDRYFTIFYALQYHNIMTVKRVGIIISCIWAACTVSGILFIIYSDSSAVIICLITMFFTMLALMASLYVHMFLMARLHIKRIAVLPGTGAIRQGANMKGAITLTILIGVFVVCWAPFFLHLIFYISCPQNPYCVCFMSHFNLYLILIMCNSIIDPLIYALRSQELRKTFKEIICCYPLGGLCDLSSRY
Chain of Beta-2 adrenergic receptor (P07550 whole entry): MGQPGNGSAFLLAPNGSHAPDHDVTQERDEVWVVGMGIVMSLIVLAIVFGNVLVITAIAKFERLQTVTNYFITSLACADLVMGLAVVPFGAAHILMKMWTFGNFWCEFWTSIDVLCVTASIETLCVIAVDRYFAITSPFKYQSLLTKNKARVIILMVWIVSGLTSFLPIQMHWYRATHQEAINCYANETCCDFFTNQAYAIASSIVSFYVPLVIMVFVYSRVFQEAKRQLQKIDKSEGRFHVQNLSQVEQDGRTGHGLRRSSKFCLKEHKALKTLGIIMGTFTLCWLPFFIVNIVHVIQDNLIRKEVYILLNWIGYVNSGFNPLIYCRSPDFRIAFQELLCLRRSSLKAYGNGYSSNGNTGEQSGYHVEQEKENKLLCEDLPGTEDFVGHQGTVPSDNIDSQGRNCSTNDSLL

SMILES	AC50 [1] [µM]	AC50 [2] [µM]	AC50 [3] [µM]	AC50 (Cannabinoid receptor 1 [4]) [µM]	AC50 (Cannabinoid receptor 1 [5]) [µM]	AC50 (Cannabinoid receptor 1 [6]) [µM]	AC50 (Estrogen receptor) [µM]	AC50 (Histamine H1 receptor) [µM]	AC50 (Melanocortin receptor 4) [µM]	AC50 [7] [µM]	AC50 [8] [µM]	AC50 (Mu-type opioid receptor) [µM]	AC50 [9] [µM]
COc1cc(C)c(/C=C/C(C)=C/C=C/C(C)=C/C(=O)O)c(C)c1C [ACITRETIN]	> 10	> 10	> 10	> 30	> 30	> 10	> 30	> 10	> 10	> 30			
COc1ccc(C2C(=O)c3ccccc3C2=O)cc1 [ANISINDIONE]	> 30					> 10	> 30		> 10		> 10	> 30	
O=C(O)CCNC(=O)c1ccc(/N=N/c2ccc(O)c(C(=O)O)c2)cc1 [BALSALAZIDE]	> 30					> 30	> 30		> 30		> 30	> 30	
O=C(O)c1ccc(NC(=O)[C@H](Cc2ccc(O)cc2)NC(=O)c2ccccc2)cc1 [BENTIROMIDE]	> 10	> 10	> 10			> 10	> 10	> 10	> 10		> 10		
NS(=O)(=O)c1cc2c(cc1Cl)N=C(CSCc1ccccc1)NS2(=O)=O [BENZTHIAZIDE]	> 30	7.4	> 30			> 10	> 30	> 30	> 10		> 10	> 30	
O=C(CCCN1CCC(O)(c2ccc(Br)cc2)CC1)c1ccc(F)cc1 [BROMPERIDOL]			20	> 30	> 30		> 30			0.28	1.2	2	> 30
CO/N=C(\C(=O)N[C@@H]1C(=O)N2C(C(=O)O)=CCS[C@H]12)c1csc(N)n1 [CEFTIZOXIME]			> 30	> 30	> 30		> 30	> 30		> 30		> 30	> 30
C[C@@H]1C[C@H]2[C@@H]3CCC4=CC(=O)C=C[C@]4(C)[C@@]3(F)[C@@H](O)C[C@]2(C)[C@@]1(O)C(=O)CO [DEXAMETHASONE]	> 30					> 10			> 30		> 10	> 30	
CC(C)[C@@H](C)/C=C/[C@@H](C)[C@H]1CC[C@H]2/C(=C/C=C3\C[C@@H](O)CC[C@@H]3C)CCC[C@]12C [DIHYDROTACHYSTEROL]	> 10	> 10	> 10			> 10	> 30	> 10	> 10		> 10		
CCOC(=O)c1ncn2c1CN(C)C(=O)c1cc(F)ccc1-2 [FLUMAZENIL]	> 10					> 30	> 30		> 30	> 30	> 10	> 30	
